Laboratory results: patent publication US10905704B2, “Agents and methods using thereof for the prevention and treatment of stem cell muscle disorders” (ECOLE POLYTECHNIQUE FEDERALE DE LAUSANNE (EPFL), priority 2015, dated 2021)

Columns and labels:
[1] = system: MuSCs; assay: Myogenesis (colony formation) assay; format: cell-based, C57BL/6J mice; settings: MuSCs isolated from NR-treated aged mice
Description: Myogenesis assay. Five MuSCs were sorted directly into wells of a Matrigel-coated 96-well cell culture plate, containing MuSC growth medium (F10, 20% FBS, 2.5 ng/ml bFGF, 1×pen/strep), using the automated cell deposition unit (ACDU) of the FACSAria II instrument (BD Biosciences). Cells were cultured at 37° C. for 5 days. Cell colony formations were counted using the DM IL LED Inverted Microscope (Leica) after fixation in freshly made or defrosted 4% paraformaldehyde (PFA) for 10 min.

[2] = system: MuSCs; assay: MuSC numbers in NR-treated Mdx mice (FACS, PAX7 immunostaining); format: in vivo
Description: Animals. Young (1 month old) and aged (20-24 months old) C57BL/6JRj mice, purchased from Janvier Labs, and five weeks old male C57BL/10SnJ mice or C57BL/10ScSn-Dmdmdx/J, purchased from The Jackson Laboratory, were fed with pellets containing vehicle or NR (400 mg/kg/day) for 6-8 weeks. The pellets were prepared by mixing powdered chow diet (D12450B, Research Diets Inc.) with water or with NR dissolved in water. Pellets were dried under a laminar flow hood for 48 hours. All mice were housed in micro-isolator cages in a room illuminated from 7:00 am -7:00 pm with ad libitum access to diet and water.
FACS based muscle stem cell isolation. Gastrocnemius, soleus, quadriceps, and tibialis anterior muscles from both limbs were excised and transferred into PBS on ice. All muscles were trimmed, minced and digested with 0.1 mg/ml of type II collagenase (Sigma) in PBS for 15 min at 37° C. Samples were then centrifuged at 750 g for 5 min and further digested in 1 mg/ml of collagenase/dispase (Roche) for 30 mins at 37° C. Muscle slurries were sequentially filtered through 100, 70 and 40 μm cell strainers. […] Stained cells were analysed and sorted using the FACSAria II instrument (BD Biosciences). […]

[3] = system: muscle stem cells (MuSCs); assay: MuSC numbers in muscle of NR-fed young and aged mice (FACS, PAX7 staining); format: in vivo, C57BL/6J mice; settings: for MuSC numbers (FACS): NR 400 mg/kg/day in diet for 6 weeks, FIG. 3A-C
Description: Animals. Young (1 month old) and aged (20-24 months old) C57BL/6JRj mice, purchased from Janvier Labs, and five weeks old male C57BL/10SnJ mice or C57BL/10ScSn-Dmdmdx/J, purchased from The Jackson Laboratory, were fed with pellets containing vehicle or NR (400 mg/kg/day) for 6-8 weeks. The pellets were prepared by mixing powdered chow diet (D12450B, Research Diets Inc.) with water or with NR dissolved in water. Pellets were dried under a laminar flow hood for 48 hours. All mice were housed in micro-isolator cages in a room illuminated from 7:00 am -7:00 pm with ad libitum access to diet and water. FACS based muscle stem cell isolation. Gastrocnemius, soleus, quadriceps, and tibialis anterior muscles from both limbs were excised and transferred into PBS on ice. All muscles were trimmed, minced and digested with 0.1 mg/ml of type II collagenase (Sigma) in PBS for 15 min at 37° C. Samples were then centrifuged at 750 g for 5 min and further digested in 1 mg/ml of collagenase/dispase (Roche) for 30 mins at 37° C. Muscle slurries were sequentially filtered through 100, 70 and 40 μm cell strainers. The isolated cells were then washed in washing buffer (PBS+2.5% FBS) then resuspended in 200 μl of washing buffer and immediately stained with antibodies, including the MuSC markers CD31 (1:800, eBioscience, eFluor450 conjugated); CD34 (1:200, eBioscience, eFluor660 conjugated); CD45 (1:200, eBioscience, eFluor450 conjugated); CD11b (1:400, eBioscience, eFluor450 conjugated); Sca-1 (1:1000, eBioscience, PE-Cy7 conjugated); and α7 integrin (1:300, MBL) for 30 min at 4° C. Secondary staining was performed with a mixture of goat anti-mouse antibody (1:800, Life technologies, Alexa Fluor 488 conjugated) and propidium Iodide (PI, Sigma) for 15 min at 4° C. in the dark. Stained cells were analysed and sorted using the FACSAria II instrument (BD Biosciences). Debris and dead cells were excluded by forward scatter, side scatter and PI gating. Cells were sorted either directly on slides for immunostaining and into TriPure (Roche) reagent for RNA extraction. Histology. […]

## NC(=O)c1ccc[n+]([C@@H]2O[C@H](CO)[C@@H](O)[C@H]2O)c1 [NR, nicotinamide riboside]
[1]
  myogenic colony formation (proliferation ability): enhanced potential to form myogenic colonies
[2]; Mdx mice, NR 400 mg/kg/day in diet, FACS, FIG. 6B-D
  increase of MuSC numbers in vivo: ~1.8 fold
[2]; NR-treated Mdx mice, FIG. 6E
  MuSC numbers by PAX7 immunostaining: confirmed by PAX7 immunostaining
[3]; aged mice
  MuSC numbers (FACS): attenuated the loss of MuSC numbers during aging
[3]; aged mice, NR diet, FIG. 3D
  MuSC numbers by PAX7 staining of TA muscle: increase in aged MuSC numbers was confirmed
[3]; young mice
  MuSC numbers (FACS): evoking gains in younger mice
